Laboratory results taken from patent US4447603A, “Substituted-6-n-propyl-8-methylimidazo[1,5-d]-as-triazin-4-(3H)-ones” (American Cyanamid Company, priority 1981, dated 1984).

Tested on: histamine release from immunologically stimulated human basophils
Test: inhibition of mediator (histamine) release from immunologically stimulated human basophils
Format: cell-based
Settings: Leukocyte, 1 h; human basophils (leukocytes) challenged with anti-IgE or antigen, 60 minutes at 37° C.; linear regression; read-out: ED50 (the concentration in μM which causes a 50% inhibition of histamine release)
Text: The novel compounds of this invention as well as the prior art compound, 6-n-propyl-8-methylimidazo[1,5-d]-as-triazin-4(3H)-one, have been tested by the procedure of Lichtenstein, L. M. and Osler, A. G., J. Exp. Med., 120, 507-530, (1964), which evaluates the ability of compounds to inhibit mediator (histamine) release from immunologically stimluated human basophils.
Dissolve 140.3 g. of sodium chloride, 7.45 g. of potassium chloride and 74.5 g. of Trizma-Tris Pre-Set, Reagent Grade, pH 7.6, at 25° C. (Sigma Chemical Co.) in sufficient water to give a final volume of 2 liters.
(Sigma Chemical Co.) (30 mg./ml.)
Made to 0.075 M and 0.5 M. respectively, with calcium chloride dihydrate and magnesium chloride hexahydrate.
A 10 ml. portion of 10X Tris Buffer and 1.0 ml. of human albumin are diluted to 100 ml. with water.
A 10 ml. portion of 10X Tris Buffer, 1.0 ml. of human albumin. 0.8 ml. of calcium stock and 0.2 ml. of magnesium stock are diluted to 100 ml. with water.
Behring Diagnostics (Generally used at 10 μg. protein/ml. final concentration.)
Strength 1:100 (w:v) allergenic extract, Hollister-Stier Labs. Generally this is diluted 1:1000 to 1:10,000 (considering the vial as stock).
Intradermal solutions or intramuscular preparations for hyposensitization, Hollister-Stier Labs. The final concentration used is on the order of 1 PNU/ml.
Eighty milliliters of blood is withdrawn from subjects with known histamine release to anti-IgE, ragweed antigen or other specific allergen, using four 20 ml. heparinized tubes. This 80 ml. of blood is mixed with 20 ml. of saline containing 0.6 g. of dextrose and 1.2 g. of dextran. The blood is allowed to sediment at room temperature in two 50 ml. polycarbonate centrifuge tubes until a sharp interface develops between the red cells and plasma (60-90 minutes). The plasma (top) layer from each tube is withdrawn by pipet and transferred to respective 50 ml. polycarbonate tubes. The plasma is centrifuged for 8 minutes at 110X g at […] The supernatant is carefully poured off as completely as possible and the cell button is resuspended in 2-3 ml. of Tris-A buffer using a siliconized Pasteur pipet. The resuspension is accomplished by drawing the liquid gently in and out of the pipet, with the tip below the liquid, until an even suspension of cells is obtained. Sufficient Tris-A buffer is then added to bring the volume in the tube to about 45 ml. and the tube is centrifuged at 110X g for 8 minutes at 4° C. The supernatant is poured off and the cell button is resuspended and centrifuged as described above. […]

Row | SMILES | IC50 [µM]
1 | CCCc1n[nH]c(=O)n2c(CCC)nc(C)c12 [1,6-Di-n-propyl-8-methylimidazo[1,5-d]-as-triazin-4(3H)-one] | 16.1
2 | CCCc1nc(C)c2c(C)n[nH]c(=O)n12 [1,8-Dimethyl-6-n-propylimidazo[1,5-d]-as-triazin-4(3H)-one] | 13.1
3 | CCCc1nc(C)c2c(CC)n[nH]c(=O)n12 [1-Ethyl-6-n-propyl-8-methylimidazo[1,5-d]-as-triazin-4(3H)-one] | 12.3
4 | CCCc1nc(C)c2cn[nH]c(=O)n12 [6-n-propyl-8-methylimidazo[1,5-d]-as-triazin-4(3H)-one, reference compound] | 87
